{
  "source": "paper PMC12091848",
  "about": "“Structural Insights Into Galectin‐3 Recognition of a Selenoglycomimetic” (Chemmedchem, 2025)",
  "target": "T1, Galectin-3 (Gal-3) (Homo sapiens, UniProt P17931)",
  "T1 construct": "gene LGALS3",
  "T1 sequence (P17931 114-250 limits assumed)": "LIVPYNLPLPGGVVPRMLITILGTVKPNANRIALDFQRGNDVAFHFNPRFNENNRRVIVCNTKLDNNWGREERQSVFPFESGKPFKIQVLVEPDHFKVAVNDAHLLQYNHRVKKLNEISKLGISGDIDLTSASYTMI",
  "assay": "biochemical",
  "data": [
    {"molecule": "OC[C@H]1O[C@@H]([Se][C@@H]2O[C@H](CO)[C@H](O)[C@H](O)[C@H]2O)[C@H](O)[C@@H](O)[C@H]1O", "note": "[SeDG, di(β‐D‐galactopyranosyl)selenide]", "values": [
      {"measurement": "Kd", "value": "149 ± 30", "unit": "µM"}
    ]}
  ]
}
